From article PMC10418366, “Fighting Celiac Disease: Improvement of pH Stability of Cathepsin L In Vitro by Computational Design” (International Journal of Molecular Sciences, 2023)

Target: T1, rTcCathL1 (Tribolium castaneum cathepsin L) (Tribolium castaneum, UniProt D6X519)
T1 construct: gene AUGUSTUS-3.0.2_01950; mature enzyme after autocatalytic processing (pH 4.0, 37 °C) of recombinant proenzyme secreted by Pichia pastoris GS115 (pPICZalphaA); signal peptide and propeptide total 115 residues (stated for the model)
T1 sequence (D6X519 116-328): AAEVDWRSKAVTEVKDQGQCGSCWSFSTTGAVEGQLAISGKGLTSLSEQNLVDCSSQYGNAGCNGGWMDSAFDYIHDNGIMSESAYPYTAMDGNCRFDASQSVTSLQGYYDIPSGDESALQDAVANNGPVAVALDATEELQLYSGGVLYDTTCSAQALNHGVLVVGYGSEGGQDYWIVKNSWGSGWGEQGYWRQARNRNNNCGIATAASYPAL
Assay: active-site titration with irreversible inhibitor
Format: biochemical
Settings: covalent, 37 °C assay with Glp-Phe-Gln-pNA, 6 mM cysteine, 1 mM EDTA

CC(C)C[C@H](NC(=O)[C@H]1O[C@@H]1C(=O)O)C(=O)NCCCCN=C(N)N [E-64]
active-site titration with irreversible inhibitor: titration of peptidase active sites with the irreversible inhibitor E-64
